Test [1] in a line: Stain bleaching in laundry at ambient temperature (hydrogen peroxide), tea stain. The conditions noted are these: 10 mmol/l hydrogen peroxide; catalyst 25 μmol/l; IEC 60456* washing agent 7.5 g/l; 50 minutes at ambient temperature; brightness vs. absence of catalyst. Also on record: key: CIE brightness Y difference: washed with catalyst minus without. As to the method: (§1) 1 g of a circular stain (BC01 Tea, CFT; WFK10.0 Carrot juice, WFK; CS20/2 Tomato, CFT; BC04 Curry, CFT) was added into a vial with 3 ml washing liquor. The liquor contained a standard washing agent (IEC 60456*) in a concentration of 7.5 g/l. The hydrogen peroxide concentration was 10 mmol/l. The catalyst concentration (1:1 in-situ complex of the ligand with manganese(II) chloride tetrahydrate or iron (ii) chloride in methanolic solution) was 25 μmol/l. The vial was shaken with a shaker for 50 minutes at ambient temperature. After the treatment the fabric was carefully rinsed and ironed. The brightness values Y according to the CIE standard procedure of the stained test fabrics were measured with a Gretag SPM 100 instrument prior to and after the treatment, respectively. The bleaching effect is given as ΔΔY, i.e. the difference between the brightness of the fabrics washed in presence and in the absence of a catalyst, respectively.

Test [2] can be described thus: Stain bleaching in laundry at ambient temperature (hydrogen peroxide), carrot juice stain. Details: key: CIE brightness Y difference: washed with catalyst minus without. The conditions noted are these: 10 mmol/l hydrogen peroxide; catalyst 25 μmol/l; IEC 60456* washing agent 7.5 g/l; 50 minutes at ambient temperature; brightness vs. absence of catalyst. As to the method:
as §1

Test [3] is described as follows: Stain bleaching in laundry at ambient temperature (hydrogen peroxide), tomato stain. Also on record: key: CIE brightness Y difference: washed with catalyst minus without. The conditions noted are these: 10 mmol/l hydrogen peroxide; catalyst 25 μmol/l; IEC 60456* washing agent 7.5 g/l; 50 minutes at ambient temperature; brightness vs. absence of catalyst. As to the method: as §1

A short description of test [4]: Stain bleaching in laundry at ambient temperature (hydrogen peroxide), curry stain. The conditions noted are these: 10 mmol/l hydrogen peroxide; catalyst 25 μmol/l; IEC 60456* washing agent 7.5 g/l; 50 minutes at ambient temperature; brightness vs. absence of catalyst. Details: key: CIE brightness Y difference: washed with catalyst minus without. As to the method: as §1

A short description of test [5]: Dishwashing: removal of tea deposit from tea-stained cups (IKW method). Details: key: visual scale 0 = unchanged, very strong deposit to 10 = no deposit. The conditions noted are these: visual scale 0 (very strong deposit) to 10 (no deposit); carbonate buffer pH 9.6, 44 mM hydrogen peroxide, 20 μM catalyst, 15 minutes; reference without catalyst 4.5. The method, then: Tea-stained cups were prepared according to the IKW method (IKW-Arbeitskreis Maschinenspülmittel, “Methoden zur Bestimmung der Reinigungsleistung von maschinellen Geschirrspülmitteln (Part A and B)”, SÖFW, 11+14, 1998). Tea-stained cups were filled with a carbonate buffer solution (pH 9.6) containing 44 mM hydrogen peroxide and 20 μM catalyst (1:1 in-situ complex of the ligand with manganese(II) chloride tetrahydrate in methanolic solution). After 15 minutes the solution was removed, and the cups were rinsed with water. The removal of the tea deposit was evaluated visually on a scale from 0 (i.e. unchanged, very strong deposit) to 10 (i.e. no deposit).

Test [6] in a line: Stain bleaching in laundry at 40° C. Details: key: CIE brightness increase of stain vs. reference run without catalyst. The conditions noted are these: tea-stained cotton; 10 mmol/l hydrogen peroxide; catalyst 20 μmol/l; IEC 60456 A* detergent 7.5 g/l; LINITEST 30 minutes at 40° C.; relative to no catalyst. The method, then: 7.5 g of white cotton fabric and 2.5 g of tea-stained cotton fabric were treated in 80 ml of washing liquor. The liquor contained a standard detergent (IEC 60456 A*) in a concentration of 7.5 g/l. The hydrogen peroxide concentration was 10 mmol/l. The catalyst concentration (1:1 in-situ complex of the ligand with manganese(II) chloride tetrahydrate in methanolic solution) was 20 μmol/l. The washing process was carried out in a steel beaker in a LINITEST apparatus for 30 minutes at 40° C. To evaluate the bleaching results, the increase in brightness ΔΔY of the stains relative to reference experiments without the addition of catalyst (brightness according to CIE) was determined spectrophotometrically.

A short description of test [7]: Stain bleaching in laundry with peracetic acid as oxidant, tea stain. The conditions noted are these: peracetic acid 3 mmol/l; catalyst 10 μmol/l; IEC 60456* washing agent 7.5 g/l; 50 minutes at ambient temperature; vs. absence of catalyst. The method, then:
as §1, with “CFT; WFK 0.0” for “CFT; WFK10.0”, “The peracetic acid” for “The hydrogen peroxide”, “was 3” for “was 10”, “was 10” for “was 25”, “presence vs.” for “presence and in”

Test [8] is described as follows: Stain bleaching in laundry with peracetic acid as oxidant, carrot juice stain. The conditions noted are these: peracetic acid 3 mmol/l; catalyst 10 μmol/l; IEC 60456* washing agent 7.5 g/l; 50 minutes at ambient temperature; vs. absence of catalyst. As to the method: as §1, with “CFT; WFK 0.0” for “CFT; WFK10.0”, “The peracetic acid” for “The hydrogen peroxide”, “was 3” for “was 10”, “was 10” for “was 25”, “presence vs.” for “presence and in”

Test [9] in a line: Stain bleaching in laundry with peracetic acid as oxidant, tomato stain. The conditions noted are these: peracetic acid 3 mmol/l; catalyst 10 μmol/l; IEC 60456* washing agent 7.5 g/l; 50 minutes at ambient temperature; vs. absence of catalyst. The method, then:
as §1, with “CFT; WFK 0.0” for “CFT; WFK10.0”, “The peracetic acid” for “The hydrogen peroxide”, “was 3” for “was 10”, “was 10” for “was 25”, “presence vs.” for “presence and in”

The nature of test [10]: Stain bleaching in laundry with peracetic acid as oxidant, curry stain. The conditions noted are these: peracetic acid 3 mmol/l; catalyst 10 μmol/l; IEC 60456* washing agent 7.5 g/l; 50 minutes at ambient temperature; vs. absence of catalyst. As to the method: as §1, with “CFT; WFK 0.0” for “CFT; WFK10.0”, “The peracetic acid” for “The hydrogen peroxide”, “was 3” for “was 10”, “was 10” for “was 25”, “presence vs.” for “presence and in”

Consider `CN1CCN(c2ccnc(-c3cc(O)cc(CN(C)Cc4ccccn4)n3)c2)CC1` [Ligand 29-Mn, 4′-(4-methyl-piperazin-1-yl)-6-[(methyl-pyridin-2-ylmethyl-amino)-methyl]-[2,2′]bipyridinyl-4-ol], for which the “ΔΔY (Tea)” value in [1] is listed as 6.4. Besides, the “ΔΔY (Carrot Juice)” value in test [2] is on record as 3.1. For the same compound, in test [3], the “ΔΔY (Tomato)” value worked out at 4.4. Also, the “ΔY Δ(Curry)” value in test [4] turned out to be 8.3. Also, the Rating in test [5] worked out at 6.1.
As to `CN(Cc1ccccn1)Cc1cc(O)cc(-c2cc(N3CC[N+](C)(C)CC3)ccn2)n1.[I-]` [Ligand 30-Mn, 4-{4′-hydroxy-6′-[(methyl-pyridin-2-ylmethyl-amino)-methyl]-[2,2′]bipyridinyl-4-yl}-1,1-dimethyl-piperazin-1-ium iodide], the “ΔΔY (Tea)” value in [1] is reported as 7.0. The “ΔΔY (Carrot Juice)” value in test [2] is 3.6. For the same compound, the “ΔΔY (Tomato)” value in test [3] is on record as 7.4. In test [4], the “ΔY Δ(Curry)” value is 7.1. The compound further yielded a ΔΔY in test [6] of 4.5. This compound also displayed a Rating in test [5] of 7.8.
In the case of `CN(Cc1cc(-n2cccc2)ccn1)Cc1cc(O)cc(-c2cc(N(C)C)ccn2)n1` [Ligand 40c-Mn, 4′-dimethylamino-6-{[methyl-(4-pyrrol-1-yl-pyridin-2-ylmethyl)-amino]-methyl}-[2,2′]bipyridinyl-4-ol], the “ΔΔY (Tea)” value in test [1] is 3.9. In addition, the “ΔΔY (Carrot Juice)” value in test [2] is 2.5. Moreover, the “ΔΔY (Tomato)” value in [3] is 1.3. Further, in [4], the “ΔY Δ(Curry)” value came to 4.9. In test [6], this compound came in with a ΔΔY of 2.2. This compound also yielded a Rating in test [5] of 6.8.
For the compound `CN(Cc1cc(N2CCCC2)ccn1)Cc1cc(O)cc(-c2cc(N3CCCC3)ccn2)n1` [Ligand 39-Mn, 6-{[methyl-(4-pyrrolidin-1-yl-pyridin-2-ylmethyl)-amino]-methyl}-4′-pyrrolidin-1-yl-[2,2′]bipyridinyl-4-ol], in [1], the “ΔΔY (Tea)” value is recorded as 5.1. In test [2], the “ΔΔY (Carrot Juice)” value came to 4.2. The “ΔΔY (Tomato)” value in test [3] stood at 8.8. Further, in [4], the “ΔY Δ(Curry)” value is on record as 7.9. This compound also yielded a ΔΔY in [6] of 4.0. This compound registered a Rating in test [5] of 6.3.
For `CN(Cc1ccccn1)Cc1cc(O)cc(-c2ccccn2)n1` [Ligand 23-Mn, 6-[(methyl-pyridin-2-ylmethyl-amino)-methyl]-[2,2′]bipyridinyl-4-ol], the “ΔΔY (Tea)” value in test [1] is given as 2.9. Further, in test [2], the “ΔΔY (Carrot Juice)” value was determined as 1.3. In addition, the “ΔΔY (Tomato)” value in [3] is given as 0.6. The “ΔY Δ(Curry)” value in test [4] stood at 7.4. Besides, the ΔΔY in [6] stood at 2.1. This compound also had a Rating in test [5] of 6.0.
On to `CN(Cc1cc(N(C)C)ccn1)Cc1cc(N(C)C)cc(-c2cc(N(C)C)ccn2)n1` [Ligand 40b-Mn], for which the “ΔΔY (Tea)” value in test [1] was 1.7. Besides, the “ΔΔY (Carrot Juice)” value in test [2] worked out at 2.7. Besides, the “ΔΔY (Tomato)” value in test [3] was determined as 2.3. Also, the “ΔY Δ(Curry)” value in [4] is on record as 3.7. Further, the ΔΔY in test [6] stood at 1.0. This compound gave a Rating in [5] of 5.8.
For `CN(Cc1cc(N(C)C)ccn1)Cc1cc(O)cc(-c2cc(N3CCCC3)ccn2)n1` [Ligand 32-Mn, 6-{[(4-dimethylamino-pyridin-2-ylmethyl)-methyl-amino]-methyl}-4′-pyrrolidin-1-yl-[2,2′]bipyridinyl-4-ol], the “ΔΔY (Tea)” value in [1] is given as 6.4; in test [7], 5.6. For the same compound, the “ΔΔY (Carrot Juice)” value in test [2] was determined as 3.1; in test [8], 2.5. Besides, the entries for the “ΔΔY (Tomato)” value in test [3] and in test [9] were 5.6 and 1.2, respectively. Also, the “ΔY Δ(Curry)” value in [4] was determined as 8.5. The ΔΔY in [6] worked out at 4.5. In addition, the “ΔΔY (Curry)” value in test [10] stood at 5.3. The compound further gave a Rating in [5] of 6.0.
As to `CN(Cc1cc(N(C)C)ccn1)Cc1cc(O)cc(-c2cc(N(C)C)ccn2)n1` [Ligand 40a-Mn, 4′-dimethylamino-6-{[(4-dimethylamino-pyridin-2-ylmethyl)-methyl-amino]-methyl}-[2,2′]bipyridinyl-4-ol], the “ΔΔY (Tea)” value in test [1] and in [7] was 7.0 each time. For the same compound, the “ΔΔY (Carrot Juice)” value in [2] was found to be 5.0; in [8], 1.6. Also, the “ΔΔY (Tomato)” value is given as 5.0 in test [3] and 3.5 in [9]. In [4], the “ΔY Δ(Curry)” value is 3.0. In test [6], this compound returned a ΔΔY of 3.0. The “ΔΔY (Curry)” value in [10] is listed as 6.4. Besides, the Rating in test [5] amounted to 5.9.
On to `CN(Cc1cc(N(C)C)ccn1)Cc1cc(O)cc(-c2cc(N(C)CCO)ccn2)n1` [Ligand 33-Mn, 6-{[(4-dimethylamino-pyridin-2-ylmethyl)-methyl-amino]-methyl}-4′-[(2-hydroxy-ethyl)-methyl-amino]-[2,2′]bipyridinyl-4-ol], for which the “ΔΔY (Tea)” value in [1] worked out at 5.5; in test [7] it was 6.1. For the same compound, the figures for the “ΔΔY (Carrot Juice)” value in test [2] and in [8] were 3.9 and 3.4, respectively. Further, the “ΔΔY (Tomato)” value in test [3] was 6.0; in test [9], 1.5. Moreover, in [4], the “ΔY Δ(Curry)” value is given as 9.1. Also, the ΔΔY in test [6] came out at 3.9. Also, the “ΔΔY (Curry)” value in test [10] worked out at 5.7. In [5], this compound yielded a Rating of 7.1.
`CN1CCN(c2ccnc(-c3cc(O)cc(CN(C)Cc4ccccn4)n3)c2)CC1` [Ligand 29/Fe, 4′-(4-methyl-piperazin-1-yl)-6-[(methyl-pyridin-2-ylmethyl-amino)-methyl]-[2,2′]bipyridinyl-4-ol] displayed a ΔΔY in [6] of 5.0.
Take `CN(Cc1ccccn1)Cc1cc(O)cc(-c2cc(N3CCCC3)ccn2)n1` [Ligand 27-Mn, 6-[(methyl-pyridin-2-ylmethyl-amino)-methyl]-4′-pyrrolidin-1-yl-[2,2′]bipyridinyl-4-ol]: the “ΔΔY (Tea)” value in test [1] is reported as 5.3. For the same compound, the “ΔΔY (Carrot Juice)” value in [2] came out at 1.3. Besides, in test [3], the “ΔΔY (Tomato)” value is 4.7. In [4], the “ΔY Δ(Curry)” value was 8.2. In [6], the ΔΔY amounted to 2.7. The compound further gave a Rating in test [5] of 6.7.
On to `COc1c(C)cnc(CN(C)Cc2cc(O)cc(-c3cc(N4CCCC4)ccn3)n2)c1C` [Ligand 36-Mn, 6-{[(4-methoxy-3,5-dimethyl-pyridin-2-ylmethyl)-methyl-amino]-methyl}-4′-pyrrolidin-1-yl-[2,2′]bipyridinyl-4-ol], for which, in test [1], the “ΔΔY (Tea)” value was found to be 4.0. In addition, the “ΔΔY (Carrot Juice)” value in test [2] came to 3.3. The “ΔΔY (Tomato)” value in [3] is on record as 4.9. Besides, the “ΔY Δ(Curry)” value in test [4] is 6.3. This compound came in with a ΔΔY in [6] of 1.6. Further, the Rating in test [5] was found to be 6.9.
